What was measured:
NRP-1/OBR complex = NRP-1/OBR complex detection by Duolink Proximity Ligation Assay in MDA-MB-231 cells; format: cell-based, human; details: Leptin stimulation compared to serum starved and unstimulated cells
Text: FIG. 2A-E. NRP-1/OBR complex is dependent of the activity of Protein-kinase CK2: NRP-1 and OBR are both a substrate of the holoenzyme CK2: In vitro phosphorylation of the recombinant full length NRP-1 (A) and the length OBR (B) indicate that the CK2β subunit is indispensable for the CK2 activity. C. Detection of the NRP-1 and CK2β subunit interaction: By using the PLA technology, the in vitro data showing the implication of CK2β subunit in the phosphorylation of NRP-1 by CK2 are in part confirmed in MDA-MB231 cells by the detection of CK2β interaction with NRP-1 as indicated by the duolink (white dot). […] E. inhibition of the NRP-1/OBR by the simultaneous CK2α and CK2α′ expression silencing using siRNA that confirms the CK2 implication In the NRP-1/OBR complex formation and nuclear localization.
To confirm a direct association of NRP-1 and Leptin in breast cancer cell migration, we investigated the NRP-1 and OBR interaction by using proximity ligation assay technology (Duolink) in MDA-MB-231 and in T47D-NRP-1. Since OBR is a member of the class I cytokine receptor family, we asked the question if the formation of the complex NRP-1/OBR can or not be modulated by Leptin. This question was investigated endogenously in MDA-MB-231 or by transient transfection of T47D either by NRP-1 or by NRP-1/OBR or OBR alone. After 24 h of transfection, cells were serum starved for 16 h then stimulated with Leptin (10 nM). After 3 h, the stimulation was stopped by removing the medium, cells was first washed then fixed and NRP-1/OBR complex formation was analyzed by Duolink in situ Proximity Ligation Assay (PLA) and by confocal microscopy detection. Co-localization was analyzed using JACoP (ImageJ; National Institutes of Health, Bethesda, Md.) software. Co-localization between molecules was indicated by a positive Pearson coefficient (r). First, the expression of NRP-1 in transfected T47D was confirmed by RT-PCR. NRP-1 forms a complex with endogenous OBR as it is shown by the Duolink detection as red dot in cells transfected with pcDNA3-NRP-1. The Duolink signal increased in the T47D co-transfected with NRP-1 and OBR. The Duolink signals in T47D transfected with either the empty vector pcDNA3 or with the OBR expressing vector were similar. The same results are observed in MDA-MB-231. […] By using subcellular protein fractionation kit, NRP-1 and OBR localization in cytoplasmic (C), membrane (M), in the total nuclear extract (N) or in soluble nuclear (SN) and chromatin bound fractions (CB) was analyzed by western blotting either in total lysate or after coimmunoprecipitation. The purity of fraction was assessed by the detection of specific proteins of each fraction such as Hsp90 for the C fraction, SP1 and HDAC2 for the SN and CB fractions and specifically the Calreticulin for endoplasmic reticulum (ER) in order to detect any contamination by the ER membrane fraction in the nuclear fractions. As suspected, OBR was coimmunoprecipitated with NRP-1 in the cytoplasmic (C) and in the nuclear fraction (N) of MDA-MB-231 but not in T47D. As well as Phosphorylated OBR (P-OBR), NRP-1 was detected in cytoplasmic fraction and in nuclear fractions SN and CB of 16 h serum starved MDA-MB-231 and stimulated with 10 nM of Leptin during 3 h at 37° C. The P-OBR and NRP-1 coimmunoprecipitated in the nuclear fractions, increasing with Leptin stimulation as observed by confocal microscopy.
As attempted, NRP-1/OBR complex was detected by confocal microscopy after by Duolink in situ Proximity Ligation Assay (PLA) in MDA-MB-231 stimulated with Leptin (10 nM). This detection was also observed in MDA-MB-231-shGFP but very less in MDA-MB-231-shNRP-1 confirming NRP-1 association with OBR.

[1] = system: T47D-NRP-1-RFP xenografts; experiment: T47D-NRP-1-RFP xenografts in Nude mice; format: in vivo
Text: First MBA-MB-231 and T47D breast cancer cells line were selected for their high and undetectable NRP-1 expression respectively and the expression of Leptin receptor (OBR). In order to investigate NRP-1 and Leptin association in breast cancer cell line migration, we proceeded to NRP-1 expression silencing in MDA-MB-231 using either siRNA or shRNA approaches or NRP-1 overexpression in T47D. […] In contrast Leptin induced MDA-MB-231 migration that was decreased in siNRP-1 conditions. The in vitro data were confirmed in vivo by MDA-MB-231 and T47D xenografts in Nude mice. Modulation of NRP-1 expression either by shRNA silencing in MDA-MB-231 or by overexpression in T47D induced an increase of proliferation and a decrease of lymph node infiltration by MDA-MB-231-shNRP-1 and a decrease of proliferation and an increase of lymph node infiltration by T47D-NRP-1-RFP in mice treated with Leptin.
This need to be more investigated and may be a new strategy for combined anti-Leptin and anti-VEGF therapies in breast cancer. […] In vitro and in vivo data are a direct evidence of NRP-1 and Leptin association in breast cancer cell line migration. This implication of Leptin and NRP-1 are in agreement of published data but with no association between Leptin and NRP-1. […]

“Leptin: small non glycosylated protein, ligand of OBR” was tested, and the “direct interaction between NRP-1 and OBR (Duolink PLA)” value (NRP-1/OBR complex) was “takes place under Leptin stimulation”, the “lymph node infiltration by T47D-NRP-1-RFP” value ([1]; Leptin treatment, human KL1 staining) was “significantly increased” and the tumor growth ([1]; T47D overexpressing NRP-1 xenograft treated with Leptin) was “tumor growth decrease”.

— patent US11629192B2, “Methods and pharmaceutical compositions for the treatment of diseases mediated by the NRP-1/OBR complex signaling pathway” (INSERM (Institut National de la Sante et de la Recherche …, priority 2014, dated 2023)
